{"source": "patent US12102063B2", "about": "(SYNEXIS LLC, priority 2017, dated 2024)", "key": {"[1]": {"system": "Influenza A (H1N1)", "protocol": "Glass slides (1″×3″) are ethanol-sanitized and autoclaved prior to testing. The slides (carriers) are placed into sterile plastic petri dishes until use. Aliquots (0.010 ml) of diluted stock Influenza A (H1N1) are aseptically spread over a 1″×1″ square area of the carrier slide to prepare a virus film.\nVirus Control carriers are placed into an adjacent modular room with the lids removed. One additional glass slide (with no virus film) is also placed into each testing chamber to perform cytotoxicity and neutralization validation controls. Upon closure of the respective study contact times (T=60 min and T=120 min), duplicate carriers are removed from each testing chamber. Duplicate carriers are also removed from the control modular room at each time point. Duplicate time zero carriers are harvested and enumerated promptly by eluting the films with 2 ml of influenza Infection Medium. Serial dilutions (1:10) are performed and dilutions 10−^1 to 10−^5 are plated in quadruplicate onto Madin-Darby Canine Kidney (MDCK) cell monolayers prepared to suitable confluency. Cell culture assay trays are incubated at 35° C. on an orbital rotator (60 rotations/minute) for 60 minutes to facilitate viral-host adsorption. Trays are removed from incubation, and Influenza infection Media is pipetted into each well (−1.0 ml). The trays are incubated for 7 days. The assay trays are observed regularly for the presence of cytotoxicity, viral cytopathic effects, and contamination. At the end of 7 days, plates are scored and the Spearman-Karber Method is used to compute viral titers and levels of cytotoxicity."}, "[2]": {"system": "MS2 Bacteriophage ATCC 15597-B1"}, "[3]": {"conditions": "Modular Room, 120 minutes contact"}}, "note": "Like-named read-outs stand apart in the source and are kept apart here."}
{"molecule": "OO", "note": "[DHP, dry hydrogen peroxide]", "values": [{"measurement": "Log10", "setting": "[1]; Hood Chamber, 60 minutes contact", "value": ">=2.62 Log10"}, {"measurement": "Log10", "setting": "[1]; Hood Chamber, 120 minutes contact", "value": ">=1.87 Log10"}, {"measurement": "% Reduction", "setting": "[1]; Modular Room, 60 minutes contact", "value": 87, "unit": "%"}, {"measurement": "Log10", "setting": "[1]; Modular Room, 60 minutes contact, DHP 0.6-1.0 ppm", "value": 0.87, "unit": "Log10"}, {"measurement": "% Reduction", "setting": "[1]; [3]", "value": 76, "unit": "%"}, {"measurement": "Log10", "setting": "[1]; [3]", "value": 0.62, "unit": "Log10"}, {"measurement": "Log10 reduction", "setting": "[2]; DHP (+), 1 hour", "value": 3.54, "unit": "Log10"}, {"measurement": "Log10 reduction vs. Control", "setting": "[2]; DHP (+), 1 hour", "value": 2.70, "unit": "Log10"}, {"measurement": "elimination of airborne phage", "setting": "[2]; within one hour", "value": "essentially eliminated"}]}
